Patent publication US20200029564A1, “NOVEL 5-SUBSTITUTED IMIDAZOLYLMETHYLOXIRANE DERIVATIVES” (Bayer CropScience Aktiengesellschaft, priority 2016, published 2020)

How the values were obtained:
Uromyces appendiculatus = experiment: In vivo preventive test on Uromyces appendiculatus (bean rust); conditions: 264 h, 500 ppm of active ingredient, preventive spray on young bean plants, evaluated 11 days after inoculation, read-out: efficacy
Procedure: (§1) Example D: In Vivo Preventive Test on Uromyces appendiculatus (Bean Rust) [table] The active ingredients are made soluble and homogenized in a mixture of Dimethyl sulfoxide/Acetone/Tween® 80 and then diluted in water to the desired concentration. The young plants of bean are treated by spraying the active ingredient prepared as described above. Control plants are treated only with an aqueous solution of Acetone/Dimethyl sulfoxide/Tween® 80. After 24 hours, the plants are contaminated by spraying the leaves with an aqueous suspension of Uromyces appendiculatus spores. The contaminated bean plants are incubated for 24 hours at 20° C. and at 100% relative humidity and then for 10 days at 20° C. and at 70-80% relative humidity. The test is evaluated 11 days after the inoculation. 0% means an efficacy which corresponds to that of the control plants while an efficacy of 100% means that no disease is observed.

[1] = tested on: Blumeria graminis fsp. hordei; experiment: In vivo preventive Blumeria test (barley); conditions: 168 h, 500 ppm of active ingredient, preventive spray on young barley plants, evaluated 7 days after inoculation, read-out: efficacy
Procedure: Example F: In Vivo Preventive Blumeria Test (Barley) [table] To produce a suitable preparation of active compound, 1 part by weight of active compound or active compound combination is mixed with the stated amounts of solvent and emulsifier, and the concentrate is diluted with water to the desired concentration. To test for preventive activity, young plants are sprayed with the preparation of active compound or active compound combination at the stated rate of application. After the spray coating has been dried, the plants are dusted with spores of Blumeria graminis fsp. hordei. The plants are placed in the greenhouse at a temperature of approximately 18° C. and a relative atmospheric humidity of approximately 80% to promote the development of mildew pustules. The test is evaluated 7 days after the inoculation. 0% means an efficacy which corresponds to that of the untreated control, while an efficacy of 100% means that no disease is observed.

Puccinia recondita = experiment: In vivo preventive test on Puccinia recondita (brown rust on wheat); conditions: 264 h, 500 ppm of active ingredient, preventive spray on young wheat plants, evaluated 11 days after inoculation, read-out: efficacy
Procedure: as §1, with “A:” for “D:”, “Puccinia recondita (Brown Rust on Wheat)” for “Uromyces appendiculatus (Bean Rust)”, “wheat” for “bean”, “Puccinia recondita” for “Uromyces appendiculatus”

Septoria tritici = experiment: In vivo preventive test on Septoria tritici (leaf spot on wheat); conditions: Zymoseptoria tritici, 576 h; 500 ppm of active ingredient; preventive spray on young wheat plants; evaluated 24 days after inoculation; read-out: efficacy
Procedure: Example B: In Vivo Preventive Test on Septoria tritici (Leaf Spot on Wheat) [table] The active ingredients are made soluble and homogenized in a mixture of Dimethyl sulfoxide/Acetone/Tween® 80 and then diluted in water to the desired concentration. The young plants of wheat are treated by spraying the active ingredient prepared as described above. Control plants are treated only with an aqueous solution of Acetone/Dimethyl sulfoxide/Tween® 80. After 24 hours, the plants are contaminated by spraying the leaves with an aqueous suspension of Septoria tritici spores. The contaminated wheat plants are incubated for 72 hours at 18° C. and at 100% relative humidity and then for 21 days at 20° C. and at 90% relative humidity. The test is evaluated 24 days after the inoculation. 0% means an efficacy which corresponds to that of the control plants while an efficacy of 100% means that no disease is observed.

[2] = LogP by HPLC on reversed phase columns (EEC directive 79/831 Annex V.A8); assay type: physicochemical; conditions: method [a]: LC-UV, acidic range, 0.1% formic acid in water and acetonitrile as eluent; for chromatographic logP: reversed phase HPLC column
Procedure: [table] If more than one Log P value is available within the same method, all the values are given and separated by “+”. Calibration was done with straight-chain alkan2-ones (with 3 to 16 carbon atoms) with known Log P values (measurement of Log P values using retention times with linear interpolation between successive alkanones). Lambda-max-values were determined using UV-spectra from 200 nm to 400 nm and the peak values of the chromatographic signals.

Sphaerotheca fuliginea = experiment: In vivo preventive test on Sphaerotheca fuliginea (powdery mildew on cucurbits); conditions: Podosphaera fuliginea, 360 h; 500 ppm of active ingredient; preventive spray on young gherkin plants; evaluated 15 days after inoculation; read-out: efficacy
Procedure: Example C: In Vivo Preventive Test on Sphaerotheca fuliginea (Powdery Mildew on Cucurbits) [table] The active ingredients are made soluble and homogenized in a mixture of Dimethyl sulfoxide/Acetone/Tween® 80 and then diluted in water to the desired concentration. The young plants of gherkin are treated by spraying the active ingredient prepared as described above. Control plants are treated only with an aqueous solution of Acetone/Dimethyl sulfoxide/Tween® 80. After 24 hours, the plants are contaminated by spraying the leaves with an aqueous suspension of Sphaerotheca fuidiginea spores. The contaminated gherkin plants are incubated for 72 hours at 18° C. and at 100% relative humidity and then for 12 days at 20° C. and at 70-80% relative humidity. The test is evaluated 15 days after the inoculation. 0% means an efficacy which corresponds to that of the control plants while an efficacy of 100% means that no disease is observed.

| SMILES | pest or weed control at 500 ppm (Uromyces appendiculatus) [%] | pest or weed control at 500 ppm [1] [%] | pest or weed control at 500 ppm (Puccinia recondita) [%] | pest or weed control at 500 ppm (Septoria tritici) [%] | chromatographic logP [2] | pest or weed control at 500 ppm (Sphaerotheca fuliginea) [%] | LogP [2] |
| --- | --- | --- | --- | --- | --- | --- | --- |
| N#Cc1cncn1CC1(c2ccc(F)cc2)OC1c1ccccc1Br (stereo not drawn) [I-13] | 90 to 100 | 90 to 100 | 90 to 100 | 90 to 100 | 3.44 | – | – |
| Fc1ccc(C2(Cn3cncc3F)OC2c2ccccc2Cl)cc1 (stereo not drawn) [I-02] | 90 to 100 | 90 to 100 | 90 to 100 | 90 to 100 | 2.62 | 90 to 100 | – |
| N#Cc1cncn1C[C@]1(c2ccc(F)cc2)O[C@H]1c1ccccc1Cl (relative stereo) [I-03, trans 3-[[3-(2-chlorophenyl)-2-(4-fluorophenyl)oxiran-2-yl]methyl]imidazole-4-carbonitrile] | 90 to 100 | 90 to 100 | – | 90 to 100 | 3.33 | 90 to 100 | – |
| N#Cc1cncn1CC1(c2ccc(Cl)cc2)OC1c1ccccc1F (stereo not drawn) [I-10] | 90 to 100 | 90 to 100 | 90 to 100 | 90 to 100 | 3.41 | 90 to 100 | – |
| Fc1ccc(C2(Cn3cncc3Cl)OC2c2ccccc2Cl)cc1 (stereo not drawn) [I-01] | 90 to 100 | 90 to 100 | 90 to 100 | 90 to 100 | 3.19 | 90 to 100 | – |
| N#Cc1cncn1CC1(c2ccc(Br)cc2)OC1c1ccccc1Cl (stereo not drawn) [I-08] | 90 to 100 | – | – | 90 to 100 | 3.85 | 90 to 100 | – |
| N#Cc1cncn1CC1(c2ccc(F)cc2Cl)OC1c1ccccc1Cl (stereo not drawn) [I-29] | 90 to 100 | 90 to 100 | 90 to 100 | 90 to 100 | 3.71 | 90 to 100 | – |
| Fc1ccc(C2(Cn3cncc3F)OC2c2cccnc2Cl)cc1 (stereo not drawn) [I-15] | – | – | – | – | 1.57 | 90 to 100 | – |
| COc1ccc(C2(Cn3cncc3C#N)OC2c2ccccc2Cl)cc1 (stereo not drawn) [I-22] | 90 to 100 | – | 90 to 100 | 90 to 100 | 3.26 | 90 to 100 | – |
| COc1ccc(C2(Cn3cncc3C#N)OC2c2ccccc2Cl)cn1 (stereo not drawn) [I-19] | 80 to 89 | – | 90 to 100 | 90 to 100 | 2.86 | 90 to 100 | – |
| N#Cc1cncn1CC1(c2ccc(F)cc2)OC1c1ccnc(Cl)c1 (stereo not drawn) [I-20] | 90 to 100 | – | 90 to 100 | 90 to 100 | 2.5 | 90 to 100 | – |
| N#Cc1cncn1CC1(c2ccc(Cl)cc2F)OC1c1ccccc1Cl (stereo not drawn) [I-25] | 90 to 100 | 90 to 100 | 90 to 100 | 90 to 100 | 3.8 | 90 to 100 | – |
| N#Cc1cncn1CC1(c2ccc(F)cc2)OC1c1cccc(Br)c1 (stereo not drawn) [I-23] | 90 to 100 | – | 90 to 100 | 90 to 100 | 3.44 | 90 to 100 | – |
| N#Cc1cncn1CC1(c2ccc(F)cc2)OC1c1cccnc1Cl (stereo not drawn) [I-16] | – | – | – | – | 2.2 | 90 to 100 | – |
| N#Cc1cncn1CC1(c2ccc(F)cc2F)OC1c1ccccc1Cl (stereo not drawn) [I-09] | 90 to 100 | – | – | 90 to 100 | 3.06 | 90 to 100 | – |
| N#Cc1cncn1CC1(c2ccc(F)cc2)OC1c1cccc(Cl)c1 (stereo not drawn) [I-21] | 90 to 100 | – | 90 to 100 | 80 to 89 | 3.35 | 90 to 100 | – |
| N#Cc1cncn1C[C@]1(c2ccc(F)cc2)O[C@@H]1c1ccccc1Cl (relative stereo) [I-04, cis 3-[[3-(2-chlorophenyl)-2-(4-fluorophenyl)oxiran-2-yl]methyl]imidazole-4-carbonitrile] | 80 to 89 | – | – | 80 to 89 | 2.98 | 90 to 100 | – |
| N#Cc1cncn1CC1(c2ccc(Cl)cc2)OC1c1ccccc1Cl (stereo not drawn) [I-06] | 90 to 100 | 90 to 100 | 90 to 100 | 90 to 100 | 3.68 | 90 to 100 | – |
| N#Cc1cncn1CC1(c2ccc(F)cc2)OC1c1ccc(Cl)cc1 (stereo not drawn) [I-24] | 90 to 100 | – | 90 to 100 | 90 to 100 | 3.37 | 90 to 100 | – |
| N#Cc1cncn1CC1(c2ccc(Cl)cc2)OC1c1ccccc1Br (stereo not drawn) [I-11] | 90 to 100 | 80 to 89 | 90 to 100 | 90 to 100 | 3.83 | – | – |
| N#Cc1cncn1CC1(c2ccc(OC(F)(F)F)cc2)OC1c1ccccc1Cl (stereo not drawn) [I-07] | 90 to 100 | 90 to 100 | 90 to 100 | 90 to 100 | 4.11 | 90 to 100 | – |
| Fc1ccc(C2(Cn3cncc3F)OC2c2ccccc2Br)cc1 (stereo not drawn) [I-14] | 90 to 100 | 90 to 100 | – | 90 to 100 | 2.66 | 90 to 100 | – |
| N#Cc1cncn1CC1(c2ccc(F)cc2)OC1c1cccnc1Cl (stereo not drawn) [I-17] | 90 to 100 | – | – | 90 to 100 | – | – | 2.50 ^[a] |
| N#Cc1cncn1CC1(c2ccc(C(F)(F)F)cc2)OC1c1ccccc1Cl (stereo not drawn) [I-05] | 90 to 100 | 90 to 100 | 90 to 100 | 90 to 100 | 3.96 | 90 to 100 | – |
| N#Cc1cncn1CC1(c2ccc(F)cc2)OC1c1ccccc1F (stereo not drawn) [I-12] | 90 to 100 | 90 to 100 | 90 to 100 | 90 to 100 | 3.06 | 90 to 100 | – |
